Assay results as given in US20110251379A1, “COMPOUNDS USEFUL FOR TREATING NEURODEGENERATIVE DISORDERS” (Satori Pharmaceuticals, Inc., priority 2010, published 2011).
Read-outs that look alike come from different tables or passages of the source.

What was measured:
Type in all cases: cell-based
Aβ-40 = assay: MSD Human (6E10) Ab 3-PLEX elisa, conditioned media of 2B7 cells: Aβ-40; conditions: for IC50: Aβ-40 (superscript b)
Outline: (§1)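 We dose confluent 2B7 cells for 5 hours at 37° C, keeping DMSO at 1%. Diluted media then incubates on antibody-coated plates either overnight at 4 degrees C or 2 hours at room temp.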

Aβ-42 = assay: MSD Human (6E10) Ab 3-PLEX elisa, conditioned media of 2B7 cells: Aβ-42; conditions: for IC50: Aβ-42 (superscript c); for inhibition at 20 µM: Aβ-42, 20 μM
Outline: as §1

Aβ-38 = assay: MSD Human (6E10) Ab 3-PLEX elisa, conditioned media of 2B7 cells: Aβ-38; conditions: for IC50: Aβ-38 (superscript a); for inhibition at 20 µM: Aβ-38, 20 μM
Outline: as §1

[1] = Homo sapiens, read-out: 50% reduction value
[2] = Homo sapiens, read-out: IC50 range

SMILES: CCO[C@@H]([C@H]1C[C@@H](C)[C@H]2[C@H](O1)[C@H](O)[C@@]1(C)C3CC[C@H]4C(C)(C)C(OC(=O)NC5CNC5)CC[C@@]45C[C@@]35CC[C@]21C)C(C)(C)O (stereo partly drawn)
- IC50 (Aβ-40; [1]): 1 to 10 µM
- IC50 (Aβ-40; [2]): > 10 µM
- IC50 (Aβ-42; [1]): < 1000 nM
- IC50 (Aβ-42; [2]): < 1000 nM
- IC50 (Aβ-38; [1]): < 1000 nM

SMILES: COC(=O)OCC1C[C@@H](C)[C@H]2C(O1)[C@H](O)[C@@]1(C)C3CC[C@H]4C(C)(C)[C@@H](OC5CN(C(=O)CC6CC6)CCO5)CC[C@@]45C[C@@]35CC[C@]21C (stereo partly drawn)
- inhibition at 100 µM (Aβ-40; Homo sapiens, Aβ-40, 100 μM): 25 to 75%
- inhibition at 100 µM (Aβ-42; Homo sapiens, Aβ-42, 100 μM): 25 to 75%
- IC50 (Aβ-38; [2]): 1000 to 10000 nM

SMILES: CC1CC(C(OC(=O)C2CC2)C(C)(C)O)OC2C1C1(C)CCC34CC35CCC(O)C(C)(C)C5CCC4C1(C)C2O (stereo not drawn) [drawing 1214]
- IC50 (Aβ-40; read-out: 50% reduction value): 1 to 10 µM
- IC50 (Aβ-42; read-out: 50% reduction value): < 1000 nM
- IC50 (Aβ-38; read-out: 50% reduction value): 1000 to 10000 nM

SMILES: CCO[C@@H](C1C[C@@H](C)[C@H]2C(O1)[C@H](O)[C@@]1(C)C3CC[C@H]4C(C)(C)C(O[C@H]5CN(C6CCOCC6)CCO5)CC[C@@]45C[C@@]35CC[C@]21C)C(C)(C)O (stereo partly drawn)
- IC50 (Aβ-40; [1]): 1 to 10 µM
- IC50 (Aβ-40; [2]): 1 to 10 µM
- IC50 (Aβ-42; [1]): < 1000 nM
- IC50 (Aβ-42; [2]): < 1000 nM
- IC50 (Aβ-38; [1]): < 1000 nM
- IC50 (Aβ-38; [2]): < 1000 nM

SMILES: CC1CC(C(OC(=O)C2CCOCC2)C(C)(C)O)OC2C1C1(C)CCC34CC35CCC(OC3CN(C6COC6)CCO3)C(C)(C)C5CCC4C1(C)C2O (stereo not drawn)
- IC50 (Aβ-40; read-out: 50% reduction value): 1 to 10 µM
- IC50 (Aβ-40; read-out: IC50 range): 1 to 10 µM
- IC50 (Aβ-42; read-out: 50% reduction value): < 1000 nM
- IC50 (Aβ-38; read-out: 50% reduction value): < 1000 nM
- IC50 (Aβ-38; read-out: IC50 range): < 1000 nM

SMILES: CC(=O)O[C@@H](C1C[C@@H](C)C2C(O1)[C@H](O)[C@@]1(C)[C@@H]3CC[C@H]4C(C)(C)C(O)CC[C@@]45C[C@@]35CC[C@]21C)C(C)(C)C (stereo partly drawn)
- inhibition at 20 µM (Aβ-40; Homo sapiens, Aβ-40, 20 μM): 25 to 75%
- IC50 (Aβ-42; [1]): < 1000 nM
- IC50 (Aβ-38; [1]): 1000 to 10000 nM

SMILES: CC(C)[C@@H](OC(=O)N1CCC1)C1C[C@@H](C)[C@H]2C(O1)[C@H](O)[C@@]1(C)C3CC[C@H]4C(C)(C)C(OC(=O)NC5COC5)CC[C@@]45C[C@@]35CC[C@]21C (stereo partly drawn)
- IC50 (Aβ-40; [1]): > 10 µM
- IC50 (Aβ-42; [1]): < 1000 nM
- IC50 (Aβ-38; [1]): < 1000 nM

SMILES: CCC(=O)OC(C1CC(C)C2C(O1)C(O)C1(C)C3CCC4C(C)(C)C(OC5CN(C6COC6)CCO5)CCC45CC35CCC21C)C(C)(C)O (stereo not drawn) [drawing 1209]
- IC50 (Aβ-40; read-out: 50% reduction value): 1 to 10 µM
- IC50 (Aβ-40; read-out: IC50 range): 1 to 10 µM
- IC50 (Aβ-42; read-out: 50% reduction value): < 1000 nM
- IC50 (Aβ-38; read-out: 50% reduction value): < 1000 nM
- IC50 (Aβ-38; read-out: IC50 range): < 1000 nM

SMILES: CC(=O)OC(C)(C)C1C[C@@H](C)[C@H]2C(O1)[C@H](O)[C@@]1(C)C3CC[C@H]4C(C)(C)C(OC(=O)N5CCOCC5)CC[C@@]45C[C@@]35CC[C@]21C (stereo partly drawn)
- inhibition at 20 µM (Aβ-40; Homo sapiens, Aβ-40, 20 μM): < 25%
- inhibition at 20 µM (Aβ-42; Homo sapiens): < 25%
- inhibition at 20 µM (Aβ-38; Homo sapiens): 25 to 75%

SMILES: C[C@@H]1CC([C@@H]2OCOC2(C)C)OC2[C@H]1[C@@]1(C)CC[C@@]34C[C@@]35CCC(O[C@H]3CN(C6COC6)CCO3)C(C)(C)[C@@H]5CCC4[C@]1(C)[C@H]2O (stereo partly drawn)
- inhibition at 20 µM (Aβ-40; Homo sapiens, Aβ-40, 20 μM): 25 to 75%
- IC50 (Aβ-42; [1]): > 10000 nM
- IC50 (Aβ-38; [1]): 1000 to 10000 nM

SMILES: CCOC(=O)CO[C@@H]([C@H]1C[C@@H](C)[C@H]2[C@H](O1)[C@H](O)[C@@]1(C)C3CC[C@H]4C(C)(C)[C@@H](O[C@H]5CN(C6COC6)CCO5)CC[C@@]45C[C@@]35CC[C@]21C)C(C)(C)O (stereo partly drawn)
- IC50 (Aβ-40; [1]): > 10 µM
- inhibition at 20 µM (Aβ-42; Homo sapiens): 25 to 75%
- inhibition at 20 µM (Aβ-38; Homo sapiens): 25 to 75%

SMILES: C[C@@H]1CC(CC(=O)O)OC2[C@H]1[C@@]1(C)CC[C@@]34C[C@@]35CC[C@H](O[C@H]3CN(C(=O)CC6CC6)CCO3)C(C)(C)[C@@H]5CCC4[C@]1(C)[C@H]2O (stereo partly drawn)
- IC50 (Aβ-40; [2]): > 10 µM
- IC50 (Aβ-42; [2]): 1000 to 10000 nM
- IC50 (Aβ-38; [2]): > 10000 nM

SMILES: CC(=O)NCCC1C[C@@H](C)[C@H]2C(O1)[C@H](O)[C@@]1(C)C3CC[C@H]4C(C)(C)[C@@H](O)CC[C@@]45C[C@@]35CC[C@]21C (stereo partly drawn)
- inhibition at 20 µM (Aβ-40; Homo sapiens, Aβ-40, 20 μM): < 25%
- IC50 (Aβ-42; [1]): 1000 to 10000 nM
- inhibition at 20 µM (Aβ-38; Homo sapiens): 25 to 75%

SMILES: CCS[C@@H](C1C[C@@H](C)C2C(O1)[C@H](O)[C@@]1(C)C3CC[C@H]4C(C)(C)C(O[C@H]5CN(C6COC6)CCO5)CC[C@@]45C[C@@]35CC[C@]21C)C(C)(C)O (stereo partly drawn)
- IC50 (Aβ-40; [1]): > 10 µM
- inhibition at 20 µM (Aβ-42; Homo sapiens): 25 to 75%
- IC50 (Aβ-38; [1]): 1000 to 10000 nM

SMILES: COC(=O)NCC1C[C@@H](C)[C@H]2C(O1)[C@H](O)[C@@]1(C)C3CC[C@H]4C(C)(C)[C@@H](O)CC[C@@]45C[C@@]35CC[C@]21C (stereo partly drawn)
- inhibition at 20 µM (Aβ-40; Homo sapiens, Aβ-40, 20 μM): 25 to 75%
- inhibition at 20 µM (Aβ-42; Homo sapiens): 25 to 75%
- IC50 (Aβ-38; [1]): > 10000 nM

SMILES: COC1C2OC(C(OC(=O)C3CC3)C(C)(C)O)CC(C)C2C2(C)CCC34CC35CCC(OC3CNCCO3)C(C)(C)C5CCC4C12C (stereo not drawn)
- % Inh. (range) (Aβ-40; Aβ-40, 20 μM): E^b (20 μM) (% inhibition of 25-75%)
- IC50 (Aβ-42; read-out: 50% reduction value): 1000 to 10000 nM
- IC50 (Aβ-38; read-out: 50% reduction value): 1000 to 10000 nM
